Results taken from article PMC10482942, “Novel quinazoline-1,2,3-triazole hybrids with anticancer and MET kinase targeting properties” (Scientific Reports, 2023).

Tests used:
AsPC-1 spheroids = assay: Three-dimensional spheroid growth inhibition, APH assay; format: cell-based, human; settings: for Circularity and solidity of spheroids: AsPC-1 spheroids, after 72 h of treatment, ImageJ; for IC50: Homo sapiens, ASPC1, APH assay, 72 h treatment, read-out: IC50 in AsPC-1 three-dimensional spheroid model
Protocol: Three-dimensional spheroid cell cultures were produced based on the liquid overlay technique. Agarose solution in RPMI (1.5% w/v) was prepared and sterilized in an autoclave. Then, each well of 96-well flat-bottom plates was coated with 50 µl of agarose solution and was left to solidify at room temperature for at least 2 h. One hundred twenty-five µl of a suspension of AsPC-1 cells in RPMI medium containing 10% FBS at a density of 2 × 10^5 cells/ml was added to each well. Afterwards, the plates were centrifuged at 700g for 5 min and incubated under standard culture conditions. After 48 h of incubation, which allowed one spheroid to be formed in each well, 100 µl of the medium was removed, and spheroids were treated with synthesized derivatives diluted in a fresh medium containing 10% FBS for 72 h.
At the final step, cell viability was measured by the acid phosphatase (APH) assay, which is based on the hydrolysis of the p-nitrophenyl phosphate (pNPP) and its conversion to yellow p-nitrophenol by intracellular acid phosphatases present in viable cells. Briefly, 160 µl of the medium was removed and 200 µl of a solution containing 2 mg/ml pNPP dissolved in 0.1 M sodium acetate at pH 4.8 were added to each well and incubated for 120 min at 37 °C. Afterwards, 10 µl of NaOH 1 M was added to each well to stop the reaction, and the absorbance was recorded at 405 nm within 10 min by a Bio-Tek microplate reader (Model Synergy HTX). The images of spheroids were recorded by a bright field microscope (Nikon model DS-Ri2) and analyzed with Nikon NIS-Elements AR imaging software for Windows version 4.30.

MTOR (h) = biological target: T1, MTOR (h) (Homo sapiens, UniProt P42345); assay: Radiometric kinase panel assay; format: biochemical; settings: Km ATP
T1 construct: purchased Eurofins Discovery

CDK4/cyclinD3 (h) = biological target: T2, CDK4/cyclinD3 (h) (Homo sapiens, UniProt P11802); assay: Radiometric kinase panel assay; format: biochemical; settings: Km ATP
T2 construct: purchased Eurofins Discovery

MAPK1 (h) = biological target: T3, MAPK1 (h) (Homo sapiens, UniProt P27361); assay: Radiometric kinase panel assay; format: biochemical; settings: Km ATP
T3 construct: purchased Eurofins Discovery

FLT1 (h) = biological target: T4, FLT1 (h) (Homo sapiens, UniProt P17948); assay: Radiometric kinase panel assay; format: biochemical; settings: Km ATP
T4 construct: purchased Eurofins Discovery

EGFR (h) = biological target: T5, EGFR (h) (Homo sapiens, UniProt P00533); assay: Radiometric kinase panel assay; format: biochemical; settings: Km ATP
T5 construct: purchased Eurofins Discovery

RET (h) = biological target: T6, RET (h) (Homo sapiens, UniProt P07949); assay: Radiometric kinase panel assay; format: biochemical; settings: Km ATP
T6 construct: purchased Eurofins Discovery

AXL (h) = biological target: T7, AXL (h) (Homo sapiens, UniProt P30530); assay: Radiometric kinase panel assay; format: biochemical; settings: Km ATP
T7 construct: purchased Eurofins Discovery

[1] = system: MET phosphorylation in AsPC-1 cells; assay: MET phosphorylation by western blot analysis; format: cell-based, human; settings: 10 and 25 μM, 3 h
Protocol: The effect of synthetic compounds on MET phosphorylation in AsPC-1 cells was investigated by western blot analysis. At first, the AsPC-1 cells were seeded in 6-well plates at a density of 250,000 cells/ml and incubated at 37 °C for 24 h. The cultured cells were then treated with the synthetic compounds at different concentrations for 3 h. Then, the cells were harvested via addition of ice-cold RIPA lysis buffer (20 mM Tris base, 150 mM NaCl, 1% Np40, 1 mM EDTA, […] and 0.1% SDS, pH 8.0) containing […] (PMSF; SigmaAldrich), 10 mM Na4O7P2 and 2 mM Na3VO4 and by use of scrapers. Also, PMSF and a protease inhibitor cocktail (Roche) were added to the extraction buffer to prevent the breakdown of the proteins. […] Protein contents of the cell extracts were measured by a bicinchoninic acid protein assay kit (Quanti-Pro BCA, Sigma–Aldrich, St. Louis, USA) using bovine serum albumin as the protein standard. […] Proteins were then detected by incubation with specific primary antibodies, rabbit monoclonal anti-p-MET (dilution 1:1000, catalogue number: 3126, Cell Signaling, Danvers, MA), and rabbit monoclonal anti-MET (dilution 1:1000, catalogue number: 4560, Cell Signaling, Danvers, MA) overnight at 4 °C. […] The band intensities were calculated with the software Gene Tools (SyneGene, Cambridge, UK) for Windows.

FMS (h) = biological target: T8, FMS (h) (Homo sapiens, UniProt P07333); assay: Radiometric kinase panel assay; format: biochemical; settings: Km ATP
T8 construct: purchased Eurofins Discovery

PDGFRB (h) = biological target: T9, PDGFRB (h) (Homo sapiens, UniProt P09619); assay: Radiometric kinase panel assay; format: biochemical; settings: Km ATP
T9 construct: purchased Eurofins Discovery

AKT2 (h) = biological target: T10, AKT2 (h) (Homo sapiens, UniProt P31751); assay: Radiometric kinase panel assay; format: biochemical; settings: Km ATP
T10 construct: purchased Eurofins Discovery

MAPK2 (m) = biological target: T11, MAPK2 (m) (Mus musculus, UniProt P63085); assay: Radiometric kinase panel assay; format: biochemical; settings: Km ATP
T11 construct: purchased Eurofins Discovery
T11 sequence (P63085 whole entry): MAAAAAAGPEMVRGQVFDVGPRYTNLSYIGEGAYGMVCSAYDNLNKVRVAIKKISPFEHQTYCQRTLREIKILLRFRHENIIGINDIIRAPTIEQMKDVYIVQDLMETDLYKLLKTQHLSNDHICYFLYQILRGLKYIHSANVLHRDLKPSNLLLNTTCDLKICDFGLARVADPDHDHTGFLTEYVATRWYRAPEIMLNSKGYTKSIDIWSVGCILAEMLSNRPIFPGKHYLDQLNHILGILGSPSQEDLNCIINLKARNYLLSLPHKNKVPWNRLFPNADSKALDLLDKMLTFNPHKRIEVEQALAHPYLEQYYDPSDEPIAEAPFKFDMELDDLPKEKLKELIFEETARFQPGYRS

T10 sequence (P31751 whole entry): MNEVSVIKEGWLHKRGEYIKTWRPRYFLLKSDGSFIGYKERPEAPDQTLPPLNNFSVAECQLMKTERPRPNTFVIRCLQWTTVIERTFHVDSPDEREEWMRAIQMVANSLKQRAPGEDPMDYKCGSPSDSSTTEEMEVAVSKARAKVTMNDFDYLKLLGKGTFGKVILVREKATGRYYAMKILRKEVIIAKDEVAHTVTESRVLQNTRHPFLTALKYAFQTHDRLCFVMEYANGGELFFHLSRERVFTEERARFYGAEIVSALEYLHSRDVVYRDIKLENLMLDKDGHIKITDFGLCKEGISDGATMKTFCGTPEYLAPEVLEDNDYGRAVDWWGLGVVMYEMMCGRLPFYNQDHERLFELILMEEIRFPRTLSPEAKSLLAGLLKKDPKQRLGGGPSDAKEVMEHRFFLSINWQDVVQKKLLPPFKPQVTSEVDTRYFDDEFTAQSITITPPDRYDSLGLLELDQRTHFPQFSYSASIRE
T7 sequence (P30530 26-894): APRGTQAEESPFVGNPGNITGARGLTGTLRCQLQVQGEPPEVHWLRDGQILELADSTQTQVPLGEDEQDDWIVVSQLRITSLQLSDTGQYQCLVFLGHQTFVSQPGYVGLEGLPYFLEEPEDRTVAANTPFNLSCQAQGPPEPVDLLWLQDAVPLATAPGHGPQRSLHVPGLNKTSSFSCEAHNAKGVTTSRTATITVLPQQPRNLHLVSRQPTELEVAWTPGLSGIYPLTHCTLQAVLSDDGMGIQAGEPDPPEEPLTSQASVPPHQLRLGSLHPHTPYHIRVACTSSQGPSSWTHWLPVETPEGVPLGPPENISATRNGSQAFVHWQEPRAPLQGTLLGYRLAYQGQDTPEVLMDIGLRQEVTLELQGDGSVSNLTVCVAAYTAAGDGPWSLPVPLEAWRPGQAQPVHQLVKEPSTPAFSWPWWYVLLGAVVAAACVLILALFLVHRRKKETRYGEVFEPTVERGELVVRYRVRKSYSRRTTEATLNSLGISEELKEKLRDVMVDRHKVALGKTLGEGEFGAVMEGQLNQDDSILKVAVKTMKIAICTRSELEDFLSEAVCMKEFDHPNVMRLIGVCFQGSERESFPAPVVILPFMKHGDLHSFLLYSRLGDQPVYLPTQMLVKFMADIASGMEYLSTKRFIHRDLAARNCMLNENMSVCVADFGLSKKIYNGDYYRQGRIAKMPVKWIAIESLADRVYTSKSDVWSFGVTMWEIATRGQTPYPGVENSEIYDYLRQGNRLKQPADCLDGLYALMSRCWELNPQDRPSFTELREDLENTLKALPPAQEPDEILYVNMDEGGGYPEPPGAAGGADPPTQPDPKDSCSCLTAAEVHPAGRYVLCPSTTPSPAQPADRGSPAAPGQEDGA
T2 sequence (P11802 whole entry): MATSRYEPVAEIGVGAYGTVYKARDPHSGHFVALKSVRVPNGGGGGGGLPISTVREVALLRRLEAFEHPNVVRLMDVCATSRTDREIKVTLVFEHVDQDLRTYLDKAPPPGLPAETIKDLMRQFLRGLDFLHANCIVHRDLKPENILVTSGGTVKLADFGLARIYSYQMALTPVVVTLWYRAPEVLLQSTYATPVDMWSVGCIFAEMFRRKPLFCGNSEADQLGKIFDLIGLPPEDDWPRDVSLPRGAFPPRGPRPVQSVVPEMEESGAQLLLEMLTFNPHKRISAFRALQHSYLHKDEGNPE
T2 sequence (P30281 whole entry partner): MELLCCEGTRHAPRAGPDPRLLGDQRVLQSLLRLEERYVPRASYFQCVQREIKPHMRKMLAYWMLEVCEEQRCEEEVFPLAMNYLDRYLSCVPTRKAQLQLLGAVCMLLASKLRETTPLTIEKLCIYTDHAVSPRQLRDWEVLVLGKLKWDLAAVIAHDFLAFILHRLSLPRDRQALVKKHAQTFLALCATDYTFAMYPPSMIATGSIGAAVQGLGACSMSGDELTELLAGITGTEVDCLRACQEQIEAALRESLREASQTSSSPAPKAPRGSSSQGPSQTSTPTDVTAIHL
T5 sequence (P00533 25-1210): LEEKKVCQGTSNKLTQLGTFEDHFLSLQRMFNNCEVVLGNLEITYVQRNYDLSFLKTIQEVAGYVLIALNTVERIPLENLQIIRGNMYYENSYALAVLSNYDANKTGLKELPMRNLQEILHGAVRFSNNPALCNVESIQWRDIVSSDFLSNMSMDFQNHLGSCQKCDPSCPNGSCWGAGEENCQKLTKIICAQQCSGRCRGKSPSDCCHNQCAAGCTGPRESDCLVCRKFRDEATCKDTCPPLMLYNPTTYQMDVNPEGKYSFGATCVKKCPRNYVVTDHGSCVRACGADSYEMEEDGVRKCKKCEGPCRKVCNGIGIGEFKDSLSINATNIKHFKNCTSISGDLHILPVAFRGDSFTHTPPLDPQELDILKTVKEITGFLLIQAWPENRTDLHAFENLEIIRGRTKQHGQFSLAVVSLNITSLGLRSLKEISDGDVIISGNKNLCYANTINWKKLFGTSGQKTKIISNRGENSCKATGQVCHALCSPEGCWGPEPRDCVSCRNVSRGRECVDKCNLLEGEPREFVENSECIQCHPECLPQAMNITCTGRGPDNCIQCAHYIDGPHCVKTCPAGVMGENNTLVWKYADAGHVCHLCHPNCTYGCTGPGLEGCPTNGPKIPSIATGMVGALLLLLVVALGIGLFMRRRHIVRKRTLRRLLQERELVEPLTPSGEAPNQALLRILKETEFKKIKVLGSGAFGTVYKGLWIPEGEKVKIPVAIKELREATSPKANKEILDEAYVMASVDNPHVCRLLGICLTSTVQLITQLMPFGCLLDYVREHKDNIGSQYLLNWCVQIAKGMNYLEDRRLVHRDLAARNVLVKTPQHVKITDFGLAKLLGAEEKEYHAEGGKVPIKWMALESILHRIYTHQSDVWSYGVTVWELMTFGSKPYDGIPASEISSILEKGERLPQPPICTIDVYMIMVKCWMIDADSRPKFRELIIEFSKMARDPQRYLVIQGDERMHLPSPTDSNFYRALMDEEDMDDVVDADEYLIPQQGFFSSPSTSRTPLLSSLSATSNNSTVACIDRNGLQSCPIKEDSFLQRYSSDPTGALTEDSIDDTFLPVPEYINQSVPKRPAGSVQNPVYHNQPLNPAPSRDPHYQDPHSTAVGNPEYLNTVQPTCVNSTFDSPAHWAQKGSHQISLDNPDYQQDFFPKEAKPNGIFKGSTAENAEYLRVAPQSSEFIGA
T8 sequence (P07333 20-972): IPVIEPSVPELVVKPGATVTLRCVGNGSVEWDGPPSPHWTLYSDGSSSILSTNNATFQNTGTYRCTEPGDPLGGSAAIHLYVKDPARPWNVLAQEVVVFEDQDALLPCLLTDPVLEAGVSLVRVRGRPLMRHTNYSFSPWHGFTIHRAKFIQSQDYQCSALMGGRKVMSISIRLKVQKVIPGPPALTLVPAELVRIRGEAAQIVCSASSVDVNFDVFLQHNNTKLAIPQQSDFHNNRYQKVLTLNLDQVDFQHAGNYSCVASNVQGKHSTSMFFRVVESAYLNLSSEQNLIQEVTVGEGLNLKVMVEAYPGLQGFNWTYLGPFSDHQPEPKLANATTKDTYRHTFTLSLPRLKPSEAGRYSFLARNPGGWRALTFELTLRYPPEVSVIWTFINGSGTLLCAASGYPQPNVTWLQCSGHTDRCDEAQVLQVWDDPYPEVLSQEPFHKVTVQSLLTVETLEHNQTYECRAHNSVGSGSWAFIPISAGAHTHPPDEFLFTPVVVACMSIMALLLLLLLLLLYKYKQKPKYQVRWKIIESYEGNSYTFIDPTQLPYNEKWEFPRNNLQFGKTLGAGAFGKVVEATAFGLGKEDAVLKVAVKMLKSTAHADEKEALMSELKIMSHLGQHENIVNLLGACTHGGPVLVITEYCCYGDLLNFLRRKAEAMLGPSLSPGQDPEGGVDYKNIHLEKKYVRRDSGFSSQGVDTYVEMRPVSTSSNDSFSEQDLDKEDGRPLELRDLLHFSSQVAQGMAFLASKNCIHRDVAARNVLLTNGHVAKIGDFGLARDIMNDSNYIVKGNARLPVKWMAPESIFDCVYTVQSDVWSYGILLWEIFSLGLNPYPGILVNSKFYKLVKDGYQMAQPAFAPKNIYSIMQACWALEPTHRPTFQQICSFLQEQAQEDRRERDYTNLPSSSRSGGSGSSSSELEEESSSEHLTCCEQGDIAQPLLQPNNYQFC
T3 sequence (P27361 whole entry): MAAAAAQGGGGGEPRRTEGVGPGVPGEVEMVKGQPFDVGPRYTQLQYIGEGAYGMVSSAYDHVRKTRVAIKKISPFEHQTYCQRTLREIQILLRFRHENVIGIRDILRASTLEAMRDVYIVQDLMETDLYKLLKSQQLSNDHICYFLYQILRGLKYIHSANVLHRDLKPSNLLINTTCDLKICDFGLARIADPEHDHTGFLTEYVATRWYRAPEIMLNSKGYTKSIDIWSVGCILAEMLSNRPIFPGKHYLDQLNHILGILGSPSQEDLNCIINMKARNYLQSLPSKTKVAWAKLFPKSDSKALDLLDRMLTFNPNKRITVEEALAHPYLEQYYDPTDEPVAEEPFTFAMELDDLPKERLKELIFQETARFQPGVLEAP

| IC50 (AsPC-1 spheroids) [µM] | inhibition at 10 µM (MTOR (h)) [%] | inhibition at 10 µM (CDK4/cyclinD3 (h)) [%] | inhibition at 10 µM (MAPK1 (h)) [%] | inhibition at 10 µM (FLT1 (h)) [%] | inhibition at 10 µM (EGFR (h)) [%] | inhibition at 10 µM (RET (h)) [%] | inhibition at 10 µM (AXL (h)) [%] | inhibition at 10 µM (FMS (h)) [%] | melting point [°C] | inhibition at 10 µM (PDGFRB (h)) [%] | inhibition at 10 µM (AKT2 (h)) [%] | inhibition at 10 µM (MAPK2 (m)) [%] | SMILES | Circularity and solidity of spheroids (AsPC-1 spheroids) | Effect on MET phosphorylation [1] |
| --- | --- | --- | --- | --- | --- | --- | --- | --- | --- | --- | --- | --- | --- | --- | --- |
| 32.7 ± 7.2 | 3 | 2 | 5 | 2 | 8 | 10 | 12 |  |  |  |  |  | Cc1ccc(Cn2cc(COc3ccc(C=NNc4ncnc5ccccc45)cc3)nn2)cc1 [Compound 8c, 2-(4-((1-(4-Methylbenzyl)-1H-1,2,3-triazol-4-yl)methoxy)benzylidene)-1-(quinazolin-4-yl)hydrazine] | significant reduction | significant suppression of MET phosphorylation |
| 36.6 ± 4.5 |  |  |  |  |  |  |  | 0 | 205.4 | 7 | 18 | 7 | CC(C)(C)c1ccc(Cn2cc(COc3ccc(C=NNc4ncnc5ccccc45)cc3)nn2)cc1 [Compound 8h, 2-(4-((1-(4-Tert-butylbenzyl)-1H-1,2,3-triazol-4-yl)methoxy)benzylidene)-1-(quinazolin-4-yl)hydrazine] | significant reduction |  |
